Results published in patent US20240115654A1, “INTRAVENOUS ADMINISTRATION OF ENGINEERED ANTIMICROBIAL AMPHIPHILIC PEPTIDES” (priority 2021, published 2024).
Where two headings read alike, the source gives them in different places. Peptide text beside a SMILES is read from it.

Description: All subjects who met eligibility criteria were confined to the clinical research unit from […] through Day 3. At admission, physical examination, vital signs, 12 lead ECG and weight were obtained, medical and medication history were updated if necessary, safety blood tests (hematology and chemistry), urinalysis, urine drug screen and an alcohol breath test were repeated and a urine pregnancy test was done for women of childbearing potential.
At each dose level, there were 2 sentinel subjects, (1 active, 1 placebo), who were dosed at least 48 hours in advance of the other subjects in their respective group. Following review of safety data, including physical examination, vital signs, and review of adverse events from the first 2 subjects, enrolment in the cohort continued.
A 12-lead ECG was performed on Day 1, within 60 minutes of infusion start (in triplicate), mid-way through the infusion, at the completion of the infusion, 30 minutes after completion of the infusion and at various timepoints following the end of the infusion.
Vital signs were recorded within 60 minutes pre-dose, at the mid-point of the infusion and post dose vitals were assessed at completion of the infusion, 0.5, 1, 2, 3, 4, 6, 9, 12, 24 and 48 hours post dose, after at least 3 minutes of rest in supine position.
Subjects returned to the study center 7 days after dosing, for the termination visit. A full physical examination, vital signs and weight were obtained, concomitant medications were updated if necessary, safety blood specimens (haematology and chemistry, PT and aPTT) and urine were collected for urinalysis and urine drug screening. A serum pregnancy test was done for women of childbearing potential and a 12-lead ECG was performed.
In this study dose limiting toxicity (DLT) was defined as any drug related ≥Grade 3 AEs occurring despite optimal therapeutic interventions (which included but were not limited to allergic/hypersensitivity reactions, dermatological reactions/infusion site reactions, haematological toxicities such as neutropenia, thrombocytopenia and anaemia and clinical chemistry abnormalities) experienced up to Day 7 (Termination Visit).
(§1) All subjects who received any amount of study drug were included in the safety analysis (Safety population).
The study was a double blinded, randomized, placebo-controlled study. The placebo administered was 0.9% sodium chloride.
On Day 1 (day of dosing), subjects were randomly assigned either peptide IV or Placebo IV. At each dose level, there were 2 sentinel subjects, (1 active, 1 placebo), who were dosed at least 48 hours in advance of the other subjects in their respective group. Following review of safety data, including physical examination, vital signs, and review of adverse events from the first 2 subjects, enrolment in the cohort continued. All subjects who met eligibility criteria were confined to the clinical research unit from Day −2 through Day 3. At admission, physical examination, vital signs, 12 lead ECG and weight were obtained, medical and medication history were updated if necessary, safety blood tests (hematology and chemistry), urinalysis, urine drug screen and an alcohol breath test were repeated and a urine pregnancy test was done for women of childbearing potential.
as §1

[1] = Cohort 5: 1 mg/kg IV 4-hr infusion (N = 6)
[2] = Cohorts 1-5, comparing dose level, infusion time, placebo and active

SMILES: CC(C)[C@H](NC(=O)[C@H](Cc1c[nH]c2ccccc12)NC(=O)[C@H](CCCNC(=N)N)NC(=O)[C@H](CCCNC(=N)N)NC(=O)[C@@H](NC(=O)[C@@H](NC(=O)[C@H](CCCNC(=N)N)NC(=O)[C@@H](NC(=O)[C@@H](NC(=O)[C@H](CCCNC(=N)N)NC(=O)[C@H](CCCNC(=N)N)NC(=O)[C@H](Cc1c[nH]c2ccccc12)NC(=O)[C@@H](NC(=O)[C@H](CCCNC(=N)N)NC(=O)[C@H](CCCNC(=N)N)NC(=O)[C@@H](NC(=O)[C@H](CCCNC(=N)N)NC(=O)[C@H](CCCNC(=N)N)NC(=O)[C@@H](NC(=O)[C@H](Cc1c[nH]c2ccccc12)NC(=O)[C@H](CCCNC(=N)N)NC(=O)[C@@H](N)CCCNC(=N)N)C(C)C)C(C)C)C(C)C)C(C)C)C(C)C)C(C)C)C(C)C)C(=O)N[C@@H](CCCNC(=N)N)C(=O)N[C@@H](CCCNC(=N)N)C(N)=O [SEQ ID NO: 1] (H-RRWVRRVRRVWRRVVRVVRRWVRR-NH2)
- Treatment-related TEAE: Blood and Lymphatic System Disorders, participants n (%) [1]: 0
- Treatment-related TEAE: Constipation, participants n (%) [1]: 0
- Treatment-related TEAE: Diarrhea, participants n (%) [1]: 0
- Treatment-related TEAE: Dizziness, occurrences m [1]: 1
- Treatment-related TEAE: Dizziness, participants n (%) [1]: 1 (16.7%)
- Treatment-related TEAE: Feeling hot, participants n (%) [1]: 0
- Treatment-related TEAE: Gastrointestinal Disorders, occurrences m [1]: 1
- Treatment-related TEAE: Gastrointestinal Disorders, participants n (%) [1]: 1 (16.7%)
- Treatment-related TEAE: General Disorders and Administration Site Conditions, occurrences m [1]: 7
- Treatment-related TEAE: General Disorders and Administration Site Conditions, participants n (%) [1]: 6 (100%)
- Treatment-related TEAE: Headache, occurrences m [1]: 1
- Treatment-related TEAE: Headache, participants n (%) [1]: 1 (16.7%)
- Treatment-related TEAE: Infusion related reaction, participants n (%) [1]: 0
- Treatment-related TEAE: Infusion site discomfort, occurrences m [1]: 1
- Treatment-related TEAE: Infusion site discomfort, participants n (%) [1]: 1 (16.7%)
- Treatment-related TEAE: Infusion site pain, occurrences m [1]: 3
- Treatment-related TEAE: Infusion site pain, participants n (%) [1]: 3 (50.0%)
- Treatment-related TEAE: Infusion site reaction, occurrences m [1]: 2
- Treatment-related TEAE: Infusion site reaction, participants n (%) [1]: 2 (33.3%)
- Treatment-related TEAE: Infusion site swelling, occurrences m [1]: 1
- Treatment-related TEAE: Infusion site swelling, participants n (%) [1]: 1 (16.7%)
- Treatment-related TEAE: Injury, Poisoning, and Procedural Complications, participants n (%) [1]: 0
- Treatment-related TEAE: Macule, occurrences m [1]: 1
- Treatment-related TEAE: Macule, participants n (%) [1]: 1 (16.7%)
- Treatment-related TEAE: Musculoskeletal and Connective Tissue Disorders, participants n (%) [1]: 0
- Treatment-related TEAE: Myalgia, participants n (%) [1]: 0
- Treatment-related TEAE: Nervous system disorders, occurrences m [1]: 2
- Treatment-related TEAE: Nervous system disorders, participants n (%) [1]: 2 (33.3%)
- Treatment-related TEAE: Oropharyngeal pain, participants n (%) [1]: 0
- Treatment-related TEAE: Orthostatic hypotension, participants n (%) [1]: 0
- Treatment-related TEAE: Phlebitis, participants n (%) [1]: 0
- Treatment-related TEAE: Respiratory, Thoracic, and Mediastinal disorders, participants n (%) [1]: 0
- Treatment-related TEAE: Skin and Subcutaneous Tissue Disorders, occurrences m [1]: 1
- Treatment-related TEAE: Skin and Subcutaneous Tissue Disorders, participants n (%) [1]: 1 (16.7%)
- Treatment-related TEAE: Thrombocytopenia, participants n (%) [1]: 0
- Treatment-related TEAE: Vascular Disorders, participants n (%) [1]: 0
- Treatment-related TEAE: Vessel puncture site erythema, participants n (%) [1]: 0
- Treatment-related TEAE: Vessel puncture site pain, participants n (%) [1]: 0
- Treatment-related TEAE: Vomiting, occurrences m [1]: 1
- Treatment-related TEAE: Vomiting, participants n (%) [1]: 1 (16.7%)
- adverse events judged Grade 3 or higher (Cohorts 1-4): none
- changes in laboratory parameters (Cohorts 1-4): No clinically significant changes
- related IRRs, events (Cohorts 1-4): 13
- serious adverse events (SAEs) or deaths (Cohorts 1-4): no reports
- subjects with related IRRs (Cohorts 1-4): 7
- subjects with study drug infusion interrupted (Cohorts 1-4): 3
- subjects with at least one TEAE (Cohorts 1-4 (0.05-0.5 mg/kg IV), 29 subjects in the SEQ ID NO: 1 arm): 25 (86.2%) subjects (%)
- TEAEs in SOC General disorders and administration site conditions (Cohorts 1-4, 29 subjects): 24.1%
- TEAEs in SOC Injury, poisoning, and procedural complication (Cohorts 1-4, 29 subjects): 48.3%
- Vascular access site pain (Cohorts 1-4, 29 subjects): 34.5%
- subjects reporting Grade 2 TEAEs (Cohorts 1-4, 29 subjects): 13.8%
- subjects with treatment related-TEAEs (Cohorts 1-4, 29 subjects): 24.1%
- total TEAEs reported (Cohorts 1-4, 29 subjects in the SEQ ID NO: 1 arm): 52
- AEs judged Grade 3 or higher (Cohorts 1-5): none
- serious TEAEs (Cohorts 1-5): no reports
- treatment-emergent DLTs (Cohorts 1-5): no reports
- TEAEs in SOC General disorders and administration site conditions (Cohorts 1-5, 35 participants): 37.1%
- TEAEs in SOC Injury, Poisoning, and Procedural Complications (Cohorts 1-5, 35 participants): 51.4%
- participants with at least 1 TEAE deemed related to treatment (Cohorts 1-5, 35 participants): 37.1%
- participants with at least 1 TEAE leading to study drug discontinuation (Cohorts 1-5, 35 participants): 5.7%
- total TEAE events (Cohorts 1-5, 35 participants): 72
- Vascular access site pain (Cohorts 1-5, 35 participants (n=10)): 28.6%
- Holter monitoring and electrocardiograms (Cohorts 1-5, by treatment assignment or dose level): no trends of concern
- hematology and coagulation [2]: no clinically significant patterns of change
- serum chemistry [2]: no clinically significant patterns of change
- participants with study drug infusion interrupted (Cohorts 1-5, of 47 participants, all in active treatment group): 8 (17.0%) participants (%)
- Participants Reporting at least One Related TEAE, % (Pooled SEQ ID NO: 1 (N = 29)): 24.1%
- Related TEAE Blood and lymphatic system disorders, n participants (Pooled SEQ ID NO: 1 (N = 29)): 0
